Measurements: PMC7265341, “Quantifying CDK inhibitor selectivity in live cells” (Nature Communications, 2020)
Like-named read-outs stand apart in the source and are kept apart here.

Legend:
CDK20/Cyclin H = CDK20/Cyclin H (Homo sapiens, UniProt Q8IZL9); assay: NanoBRET live-cell target engagement, NanoLuc-CDK20/Cyclin H in HEK-293; format: binding; details: CDK20/H, read-out: Inhibition at 10µM (%)
CDK5/CDK5R1 = CDK5/CDK5R1 (Homo sapiens, UniProt Q00535); assay: NanoBRET live-cell target engagement, CDK5-NanoLuc/CDK5R1 in HEK-293; format: binding; details: CDK5/CDK5R1, read-out: Inhibition at 10µM (%)
CDK8/Cyclin C = CDK8/Cyclin C (Homo sapiens, UniProt P49336); assay: NanoBRET live-cell target engagement, NanoLuc-CDK8/Cyclin C in HEK-293; format: binding; details: CDK8/C, read-out: Inhibition at 10µM (%)
Sequence of CDK8/Cyclin C (P49336 whole entry): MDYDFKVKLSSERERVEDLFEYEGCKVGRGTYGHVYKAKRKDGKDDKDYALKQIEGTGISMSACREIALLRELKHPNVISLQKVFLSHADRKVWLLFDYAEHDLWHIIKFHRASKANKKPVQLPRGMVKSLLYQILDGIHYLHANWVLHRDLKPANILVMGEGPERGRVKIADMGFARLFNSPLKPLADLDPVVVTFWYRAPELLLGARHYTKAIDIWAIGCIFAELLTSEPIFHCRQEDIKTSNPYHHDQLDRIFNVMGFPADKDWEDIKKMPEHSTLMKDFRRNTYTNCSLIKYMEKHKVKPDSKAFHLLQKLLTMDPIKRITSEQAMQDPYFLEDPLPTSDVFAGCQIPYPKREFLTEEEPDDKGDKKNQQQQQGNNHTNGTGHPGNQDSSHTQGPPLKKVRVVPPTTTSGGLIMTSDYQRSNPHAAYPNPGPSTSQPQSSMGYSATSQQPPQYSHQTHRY
Sequence of CDK8/Cyclin C (P24863 whole entry partner): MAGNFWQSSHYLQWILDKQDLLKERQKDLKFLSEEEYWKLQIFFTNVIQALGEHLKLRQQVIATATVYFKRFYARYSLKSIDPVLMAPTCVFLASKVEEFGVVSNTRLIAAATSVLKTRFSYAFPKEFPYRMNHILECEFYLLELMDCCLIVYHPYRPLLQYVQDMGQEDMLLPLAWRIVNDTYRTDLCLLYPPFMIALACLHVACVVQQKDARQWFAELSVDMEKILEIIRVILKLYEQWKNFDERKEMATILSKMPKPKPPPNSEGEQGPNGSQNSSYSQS

CDK15/Cyclin Y = CDK15/Cyclin Y (Homo sapiens, UniProt Q96Q40); assay: NanoBRET live-cell target engagement, NanoLuc-CDK15/Cyclin Y in HEK-293; format: binding; details: CDK15/Y; for IC50: read-out: IC50; for inhibition at 10 µM: read-out: Inhibition at 10µM (%)
Sequence of CDK15/Cyclin Y (Q96Q40 whole entry): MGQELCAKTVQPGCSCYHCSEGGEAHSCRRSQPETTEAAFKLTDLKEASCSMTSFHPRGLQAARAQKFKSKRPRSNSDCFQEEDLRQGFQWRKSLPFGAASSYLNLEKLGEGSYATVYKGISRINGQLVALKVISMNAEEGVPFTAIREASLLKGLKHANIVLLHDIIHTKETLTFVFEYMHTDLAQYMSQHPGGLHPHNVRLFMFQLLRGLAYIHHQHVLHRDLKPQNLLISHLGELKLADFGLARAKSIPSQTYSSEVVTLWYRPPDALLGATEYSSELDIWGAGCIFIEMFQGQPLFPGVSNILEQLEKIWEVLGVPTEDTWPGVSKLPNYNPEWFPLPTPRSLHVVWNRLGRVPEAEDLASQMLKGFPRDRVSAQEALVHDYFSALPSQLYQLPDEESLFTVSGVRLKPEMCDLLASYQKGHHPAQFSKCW
Sequence of CDK15/Cyclin Y (Q8ND76 whole entry partner): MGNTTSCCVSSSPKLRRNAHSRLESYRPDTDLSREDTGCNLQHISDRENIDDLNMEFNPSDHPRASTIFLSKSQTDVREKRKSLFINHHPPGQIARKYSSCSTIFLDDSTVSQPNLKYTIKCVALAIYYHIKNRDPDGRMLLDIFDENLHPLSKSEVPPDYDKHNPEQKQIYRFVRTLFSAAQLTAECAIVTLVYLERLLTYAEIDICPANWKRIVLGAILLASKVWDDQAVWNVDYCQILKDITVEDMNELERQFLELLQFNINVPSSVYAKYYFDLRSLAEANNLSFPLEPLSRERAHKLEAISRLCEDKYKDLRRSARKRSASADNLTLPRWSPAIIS

CDK6/Cyclin D1 = CDK6/Cyclin D1 (Homo sapiens, UniProt Q00534); assay: NanoBRET live-cell target engagement, NanoLuc-CDK6/Cyclin D1 in HEK-293; format: binding; details: CDK6/D1, read-out: Inhibition at 10µM (%)
CDK10/Cyclin L2 = CDK10/Cyclin L2 (Homo sapiens, UniProt Q15131); assay: NanoBRET live-cell target engagement, CDK10-NanoLuc/Cyclin L2 in HEK-293; details: for IC50: IC50 (nM), CDK10/L2; for inhibition at 10 µM: read-out: Inhibition at 10µM (%), CDK10/L2
Sequence of CDK10/Cyclin L2 (Q15131 whole entry): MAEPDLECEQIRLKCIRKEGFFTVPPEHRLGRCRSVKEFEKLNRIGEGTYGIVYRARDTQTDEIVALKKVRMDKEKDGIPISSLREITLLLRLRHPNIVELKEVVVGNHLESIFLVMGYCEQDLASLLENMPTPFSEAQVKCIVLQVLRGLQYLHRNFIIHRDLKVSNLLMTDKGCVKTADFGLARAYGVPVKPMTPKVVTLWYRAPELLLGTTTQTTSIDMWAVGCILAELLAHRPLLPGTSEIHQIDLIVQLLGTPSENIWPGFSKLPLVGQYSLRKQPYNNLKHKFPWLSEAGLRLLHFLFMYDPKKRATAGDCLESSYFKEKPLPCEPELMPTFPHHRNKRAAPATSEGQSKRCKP

CDK7 = CDK7 (Homo sapiens, UniProt P50613); assay: NanoBRET live-cell target engagement, NanoLuc-CDK7 in HEK-293; format: binding; details: CDK7; for IC50: read-out: IC50; for inhibition at 10 µM: read-out: Inhibition at 10µM (%)
CDK17/Cyclin Y = CDK17/Cyclin Y (Homo sapiens, UniProt Q00537); assay: NanoBRET live-cell target engagement, CDK17-NanoLuc/Cyclin Y in HEK-293; format: binding; details: CDK17/Y; for IC50: read-out: IC50; for inhibition at 10 µM: read-out: Inhibition at 10µM (%)
Sequence of CDK17/Cyclin Y (Q00537 whole entry): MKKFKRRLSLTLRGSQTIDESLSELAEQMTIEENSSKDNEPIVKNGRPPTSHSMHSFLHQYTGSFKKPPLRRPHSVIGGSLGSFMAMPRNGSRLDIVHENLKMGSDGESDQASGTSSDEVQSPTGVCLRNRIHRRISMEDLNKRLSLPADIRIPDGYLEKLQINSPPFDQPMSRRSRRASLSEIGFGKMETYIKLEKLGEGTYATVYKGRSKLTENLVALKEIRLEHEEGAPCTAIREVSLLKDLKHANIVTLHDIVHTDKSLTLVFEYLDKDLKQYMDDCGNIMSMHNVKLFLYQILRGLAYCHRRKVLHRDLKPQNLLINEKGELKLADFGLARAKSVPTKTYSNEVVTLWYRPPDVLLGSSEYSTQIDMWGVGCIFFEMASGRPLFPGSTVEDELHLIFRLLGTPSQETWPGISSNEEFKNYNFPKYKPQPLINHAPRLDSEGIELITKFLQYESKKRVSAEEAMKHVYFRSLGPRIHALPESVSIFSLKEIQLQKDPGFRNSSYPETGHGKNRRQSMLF
Sequence of CDK17/Cyclin Y (Q8ND76 whole entry partner): as the sequence (Q8ND76 whole entry partner) above

CDK2/Cyclin E1 = CDK2/Cyclin E1 (Homo sapiens, UniProt P24941); assay: NanoBRET live-cell target engagement, CDK2-NanoLuc/Cyclin E1 in HEK-293; format: binding; details: CDK2/E1, read-out: Inhibition at 10µM (%)
CDK19/Cyclin C = CDK19/Cyclin C (Homo sapiens, UniProt Q9BWU1); assay: NanoBRET live-cell target engagement, NanoLuc-CDK19/Cyclin C in HEK-293; details: read-out: Inhibition at 10µM (%), CDK19/C
Sequence of CDK19/Cyclin C (Q9BWU1 whole entry): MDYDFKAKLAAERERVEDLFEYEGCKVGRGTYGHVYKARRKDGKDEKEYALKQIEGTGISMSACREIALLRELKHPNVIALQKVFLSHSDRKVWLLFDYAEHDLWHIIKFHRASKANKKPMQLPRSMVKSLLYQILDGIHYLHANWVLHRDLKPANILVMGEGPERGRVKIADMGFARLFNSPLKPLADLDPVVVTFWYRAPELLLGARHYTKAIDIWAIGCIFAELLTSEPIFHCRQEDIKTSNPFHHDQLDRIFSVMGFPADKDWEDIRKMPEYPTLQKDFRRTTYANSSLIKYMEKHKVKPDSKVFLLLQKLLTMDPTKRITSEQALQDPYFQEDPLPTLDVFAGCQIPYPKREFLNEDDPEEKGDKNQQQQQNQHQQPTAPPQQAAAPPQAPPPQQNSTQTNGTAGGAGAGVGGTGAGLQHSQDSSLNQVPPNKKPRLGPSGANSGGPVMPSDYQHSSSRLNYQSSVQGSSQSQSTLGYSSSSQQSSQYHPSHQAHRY
Sequence of CDK19/Cyclin C (P24863 whole entry partner): as the sequence (P24863 whole entry partner) above

CDK11A/Cyclin L2 = target: T1, CDK11A/Cyclin L2 (Homo sapiens, UniProt Q9UQ88); assay: NanoBRET live-cell target engagement, CDK11A-NanoLuc/Cyclin L2 in HEK-293; format: binding; details: CDK11a/L2; for IC50: read-out: IC50; for inhibition at 10 µM: read-out: Inhibition at 10µM (%)
T1 sequence (Q9UQ88 1-783): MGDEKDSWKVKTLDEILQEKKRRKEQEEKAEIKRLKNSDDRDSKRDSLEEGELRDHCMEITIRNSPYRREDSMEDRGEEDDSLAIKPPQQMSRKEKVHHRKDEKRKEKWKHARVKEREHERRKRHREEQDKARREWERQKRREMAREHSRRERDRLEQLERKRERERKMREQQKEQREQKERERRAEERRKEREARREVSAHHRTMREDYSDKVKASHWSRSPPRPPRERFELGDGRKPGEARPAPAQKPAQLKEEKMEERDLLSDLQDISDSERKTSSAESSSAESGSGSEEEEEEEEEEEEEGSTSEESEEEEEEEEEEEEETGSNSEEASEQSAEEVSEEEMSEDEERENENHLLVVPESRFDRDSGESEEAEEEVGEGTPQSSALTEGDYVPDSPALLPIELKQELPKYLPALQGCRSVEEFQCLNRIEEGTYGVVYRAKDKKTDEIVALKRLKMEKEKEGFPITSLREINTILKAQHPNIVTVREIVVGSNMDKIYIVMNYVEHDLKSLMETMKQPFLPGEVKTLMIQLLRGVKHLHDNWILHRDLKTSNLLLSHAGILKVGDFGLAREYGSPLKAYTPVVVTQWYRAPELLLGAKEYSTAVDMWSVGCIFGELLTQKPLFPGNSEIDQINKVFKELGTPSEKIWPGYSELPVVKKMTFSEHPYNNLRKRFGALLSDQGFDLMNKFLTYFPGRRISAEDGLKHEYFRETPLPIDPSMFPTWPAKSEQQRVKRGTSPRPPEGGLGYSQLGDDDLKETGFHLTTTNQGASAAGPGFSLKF

CDK4/Cyclin D1 = CDK4/Cyclin D1 (Homo sapiens, UniProt P11802); assay: NanoBRET live-cell target engagement, NanoLuc-CDK4/Cyclin D1 in HEK-293; format: binding; details: CDK4/D1, read-out: Inhibition at 10µM (%)
Sequence of CDK4/Cyclin D1 (P11802 whole entry): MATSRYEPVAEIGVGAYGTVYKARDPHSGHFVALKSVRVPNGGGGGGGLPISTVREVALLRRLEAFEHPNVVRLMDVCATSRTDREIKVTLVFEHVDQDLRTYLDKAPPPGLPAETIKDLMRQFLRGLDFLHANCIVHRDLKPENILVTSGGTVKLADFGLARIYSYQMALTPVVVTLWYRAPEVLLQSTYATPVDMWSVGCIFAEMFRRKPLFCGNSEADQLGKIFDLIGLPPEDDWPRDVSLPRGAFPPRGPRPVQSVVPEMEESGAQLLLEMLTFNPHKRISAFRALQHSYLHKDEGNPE
Sequence of CDK4/Cyclin D1 (P24385 whole entry partner): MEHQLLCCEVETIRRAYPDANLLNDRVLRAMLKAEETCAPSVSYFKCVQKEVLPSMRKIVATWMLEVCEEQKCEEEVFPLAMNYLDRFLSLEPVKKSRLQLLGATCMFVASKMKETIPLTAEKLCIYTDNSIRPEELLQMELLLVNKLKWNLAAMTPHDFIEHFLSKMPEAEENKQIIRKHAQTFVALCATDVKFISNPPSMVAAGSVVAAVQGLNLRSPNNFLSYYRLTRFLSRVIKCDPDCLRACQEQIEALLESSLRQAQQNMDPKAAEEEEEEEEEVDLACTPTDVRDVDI

CDK16/Cyclin Y = CDK16/Cyclin Y (Homo sapiens, UniProt Q00536); assay: NanoBRET live-cell target engagement, CDK16-NanoLuc/Cyclin Y in HEK-293; format: binding; details: CDK16/Y; for IC50: read-out: IC50; for inhibition at 10 µM: read-out: Inhibition at 10µM (%)
CDK13/Cyclin K = CDK13/Cyclin K (Homo sapiens, UniProt Q14004); assay: NanoBRET live-cell target engagement, CDK13-NanoLuc/Cyclin K in HEK-293; format: binding; details: CDK13/K, read-out: Inhibition at 10µM (%)
CDK1/Cyclin E1 = CDK1/Cyclin E1 (Homo sapiens, UniProt P06493); assay: NanoBRET live-cell target engagement, CDK1-NanoLuc/Cyclin E1 in HEK-293; format: binding; details: CDK1/E1, read-out: Inhibition at 10µM (%)
Sequence of CDK1/Cyclin E1 (P06493 whole entry): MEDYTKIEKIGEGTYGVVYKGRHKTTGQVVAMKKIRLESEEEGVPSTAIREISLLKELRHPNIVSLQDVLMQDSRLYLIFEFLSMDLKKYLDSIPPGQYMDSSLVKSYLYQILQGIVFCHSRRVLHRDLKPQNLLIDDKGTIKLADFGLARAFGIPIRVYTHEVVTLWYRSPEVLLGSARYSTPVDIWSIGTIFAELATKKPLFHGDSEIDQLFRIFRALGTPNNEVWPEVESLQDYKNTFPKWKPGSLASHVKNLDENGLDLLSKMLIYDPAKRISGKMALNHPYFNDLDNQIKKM
Sequence of CDK1/Cyclin E1 (P24864 whole entry partner): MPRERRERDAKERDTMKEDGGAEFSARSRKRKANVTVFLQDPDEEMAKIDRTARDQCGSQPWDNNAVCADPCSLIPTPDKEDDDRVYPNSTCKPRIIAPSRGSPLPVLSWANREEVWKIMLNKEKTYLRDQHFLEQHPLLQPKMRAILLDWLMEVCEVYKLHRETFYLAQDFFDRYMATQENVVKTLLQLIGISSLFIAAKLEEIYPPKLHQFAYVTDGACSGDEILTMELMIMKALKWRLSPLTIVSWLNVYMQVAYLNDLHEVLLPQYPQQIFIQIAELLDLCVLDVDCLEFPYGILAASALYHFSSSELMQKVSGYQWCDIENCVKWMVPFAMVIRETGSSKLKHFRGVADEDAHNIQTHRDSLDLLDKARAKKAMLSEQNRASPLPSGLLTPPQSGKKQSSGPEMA

CDK11B/Cyclin L2 = CDK11B/Cyclin L2 (Homo sapiens, UniProt P21127); assay: NanoBRET live-cell target engagement, CDK11B-NanoLuc/Cyclin L2 in HEK-293; format: binding; details: CDK11b/L2; for IC50: read-out: IC50; for inhibition at 10 µM: read-out: Inhibition at 10µM (%)
CDK14/Cyclin Y = CDK14/Cyclin Y (Homo sapiens, UniProt O94921); assay: NanoBRET live-cell target engagement, CDK14-NanoLuc/Cyclin Y in HEK-293; format: binding; details: CDK14/Y, read-out: Inhibition at 10µM (%)
Sequence of CDK14/Cyclin Y (O94921 whole entry): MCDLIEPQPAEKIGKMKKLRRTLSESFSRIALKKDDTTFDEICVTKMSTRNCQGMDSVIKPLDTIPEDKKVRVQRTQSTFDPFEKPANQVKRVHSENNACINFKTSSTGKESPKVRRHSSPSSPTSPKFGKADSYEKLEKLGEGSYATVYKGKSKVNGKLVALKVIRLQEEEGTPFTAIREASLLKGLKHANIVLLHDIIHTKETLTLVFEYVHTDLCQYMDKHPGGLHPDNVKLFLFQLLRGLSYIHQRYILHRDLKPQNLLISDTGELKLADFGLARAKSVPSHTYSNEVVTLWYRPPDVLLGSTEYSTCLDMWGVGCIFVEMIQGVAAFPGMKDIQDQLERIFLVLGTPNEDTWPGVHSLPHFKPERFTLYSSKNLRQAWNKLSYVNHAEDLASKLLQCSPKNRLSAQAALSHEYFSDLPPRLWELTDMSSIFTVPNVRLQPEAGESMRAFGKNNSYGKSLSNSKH
Sequence of CDK14/Cyclin Y (Q8ND76 whole entry partner): as the sequence (Q8ND76 whole entry partner) above

CDK9/Cyclin K = CDK9/Cyclin K (Homo sapiens, UniProt P50750); assay: NanoBRET live-cell target engagement, NanoLuc-CDK9/Cyclin K in HEK-293; format: binding; details: CDK9/K; for inhibition at 10 µM: read-out: Inhibition at 10µM (%)
CDK18/Cyclin Y = CDK18/Cyclin Y (Homo sapiens, UniProt Q07002); assay: NanoBRET live-cell target engagement, CDK18-NanoLuc/Cyclin Y in HEK-293; format: binding; details: for IC50: read-out: IC50

`COc1ccc(F)cc1-c1cc(NC(=O)C2CCCNC2)ncc1Cl` (stereo not shown) [CDK inhibitor 2] gave an inhibition at 10 µM (CDK20/Cyclin H; experiment 1) of 18.7%, an inhibition at 10 µM (CDK20/Cyclin H; experiment 2) of 27.3% and an inhibition at 10 µM (CDK5/CDK5R1; average) of 40%. For the same molecule, the inhibition at 10 µM (CDK5/CDK5R1; experiment 1) was 37.7%, the inhibition at 10 µM (CDK5/CDK5R1; experiment 2) was 42.4% and the inhibition at 10 µM (CDK8/Cyclin C; average) was 58%. It also gave an inhibition at 10 µM (CDK8/Cyclin C; experiment 1) of 65.9%, an inhibition at 10 µM (CDK8/Cyclin C; experiment 2) of 50% and an IC50 (CDK15/Cyclin Y; average (± SEM where n=3)) of 540 ± 70 nM. It also gave an inhibition at 10 µM (CDK15/Cyclin Y; average) of 92.4%, an IC50 (CDK15/Cyclin Y; experiment 1) of 407 nM and an inhibition at 10 µM (CDK15/Cyclin Y; experiment 1) of 93.4%. For the same molecule, the IC50 (CDK15/Cyclin Y; experiment 2) was 570 nM, the inhibition at 10 µM (CDK15/Cyclin Y; experiment 2) was 91.4% and the IC50 (CDK15/Cyclin Y; experiment 3) was 648 nM. It also gave an inhibition at 10 µM (CDK6/Cyclin D1; average) of 77.1%, an inhibition at 10 µM (CDK6/Cyclin D1; experiment 1) of 76.2% and an inhibition at 10 µM (CDK6/Cyclin D1; experiment 2) of 78%. It also gave an IC50 (CDK10/Cyclin L2; average (± SEM where n=3)) of 500 ± 200 nM, an IC50 (CDK10/Cyclin L2; experiment 1) of 340 nM and an IC50 (CDK10/Cyclin L2; experiment 2) of 230 nM. The IC50 (CDK10/Cyclin L2; experiment 3) was 972 nM, the inhibition at 10 µM (CDK10/Cyclin L2; average) was 83.1% and the inhibition at 10 µM (CDK10/Cyclin L2; experiment 1) was 83.7%. The inhibition at 10 µM (CDK10/Cyclin L2; experiment 2) was 82.5%, the IC50 (CDK7; average (± SEM where n=3)) was 120 ± 50 nM and the inhibition at 10 µM (CDK7; average) was 82.8%. It also gave an IC50 (CDK7; experiment 1) of 83 nM, an inhibition at 10 µM (CDK7; experiment 1) of 83.3% and an IC50 (CDK7; experiment 2) of 58 nM. The inhibition at 10 µM (CDK7; experiment 2) was 82.3%, the IC50 (CDK7; experiment 3) was 215 nM and the IC50 (CDK17/Cyclin Y; average (± SEM where n=3)) was 90 ± 20 nM. The inhibition at 10 µM (CDK17/Cyclin Y; average) was 91.6%, the IC50 (CDK17/Cyclin Y; experiment 1) was 57 nM and the inhibition at 10 µM (CDK17/Cyclin Y; experiment 1) was 90.5%. It also gave an IC50 (CDK17/Cyclin Y; experiment 2) of 110 nM, an inhibition at 10 µM (CDK17/Cyclin Y; experiment 2) of 92.6% and an IC50 (CDK17/Cyclin Y; experiment 3) of 99 nM. It also gave an inhibition at 10 µM (CDK2/Cyclin E1; average) of 65.6%, an inhibition at 10 µM (CDK2/Cyclin E1; experiment 1) of 61.9% and an inhibition at 10 µM (CDK2/Cyclin E1; experiment 2) of 69.3%. For the same molecule, the inhibition at 10 µM (CDK19/Cyclin C; average) was 72.6%, the inhibition at 10 µM (CDK19/Cyclin C; experiment 1) was 75.1% and the inhibition at 10 µM (CDK19/Cyclin C; experiment 2) was 70.1%. The IC50 (CDK11A/Cyclin L2; average (± SEM where n=3)) was 20 ± 10 nM, the inhibition at 10 µM (CDK11A/Cyclin L2; average) was 95.4% and the IC50 (CDK11A/Cyclin L2; experiment 1) was 8.3 nM. The inhibition at 10 µM (CDK11A/Cyclin L2; experiment 1) was 94.8%, the IC50 (CDK11A/Cyclin L2; experiment 2) was 17 nM and the inhibition at 10 µM (CDK11A/Cyclin L2; experiment 2) was 95.9%. For the same molecule, the IC50 (CDK11A/Cyclin L2; experiment 3) was 47 nM, the inhibition at 10 µM (CDK4/Cyclin D1; average) was 83.4% and the inhibition at 10 µM (CDK4/Cyclin D1; experiment 1) was 81.2%. It also gave an inhibition at 10 µM (CDK4/Cyclin D1; experiment 2) of 85.7%, an IC50 (CDK16/Cyclin Y; average (± SEM where n=3)) of 100 ± 30 nM and an IC50 (CDK16/Cyclin Y; experiment 1) of 51 nM. For the same molecule, the inhibition at 10 µM (CDK16/Cyclin Y; experiment 1) was 89.7%, the IC50 (CDK16/Cyclin Y; experiment 2) was 140 nM and the inhibition at 10 µM (CDK16/Cyclin Y; experiment 2) was 90.1%. The IC50 (CDK16/Cyclin Y; experiment 3) was 117 nM, the inhibition at 10 µM (CDK13/Cyclin K; average) was 41.2% and the inhibition at 10 µM (CDK13/Cyclin K; experiment 1) was 31.4%. The inhibition at 10 µM (CDK13/Cyclin K; experiment 2) was 51.1%, the inhibition at 10 µM (CDK1/Cyclin E1; average) was 79.7% and the inhibition at 10 µM (CDK1/Cyclin E1; experiment 1) was 76.7%. It also gave an inhibition at 10 µM (CDK1/Cyclin E1; experiment 2) of 82.8%, an IC50 (CDK11B/Cyclin L2; average (± SEM where n=3)) of 17 ± 5 nM and an inhibition at 10 µM (CDK11B/Cyclin L2; average) of 95.6%. The IC50 (CDK11B/Cyclin L2; experiment 1) was 9 nM, the inhibition at 10 µM (CDK11B/Cyclin L2; experiment 1) was 96.5% and the IC50 (CDK11B/Cyclin L2; experiment 2) was 18 nM. The inhibition at 10 µM (CDK11B/Cyclin L2; experiment 2) was 94.6%, the IC50 (CDK11B/Cyclin L2; experiment 3) was 25 nM and the inhibition at 10 µM (CDK14/Cyclin Y; average) was 86.5%. It also gave an inhibition at 10 µM (CDK14/Cyclin Y; experiment 1) of 89.6%, an inhibition at 10 µM (CDK14/Cyclin Y; experiment 2) of 83.5% and an IC50 (CDK9/Cyclin K; average (± SEM where n=3)) of 3.5 ± 0.8 nM. For the same molecule, the inhibition at 10 µM (CDK9/Cyclin K; average) was 98.4%, the IC50 (CDK9/Cyclin K; experiment 1) was 5 nM and the inhibition at 10 µM (CDK9/Cyclin K; experiment 1) was 99.1%. The IC50 (CDK9/Cyclin K; experiment 2) was 2.3 nM, the inhibition at 10 µM (CDK9/Cyclin K; experiment 2) was 97.8% and the IC50 (CDK9/Cyclin K; experiment 3) was 3 nM. The IC50 (CDK18/Cyclin Y; CDK18/Y, average (± SEM where n=3)) was 140 ± 30 nM, the IC50 (CDK18/Cyclin Y; CDK18/Y, experiment 1) was 104 nM and the inhibition at 10 µM (CDK18/Cyclin Y; CDK18/Y, experiment 1, read-out: Inhibition at 10µM (%)) was 93.5%. For the same molecule, the IC50 (CDK18/Cyclin Y; CDK18/Y, experiment 2) was 210 nM, the inhibition at 10 µM (CDK18/Cyclin Y; CDK18/Y, experiment 2, read-out: Inhibition at 10µM (%)) was 102% and the IC50 (CDK18/Cyclin Y; CDK18/Y, experiment 3) was 112 nM. For the same molecule, the inhibition at 10 µM (CDK18/Cyclin Y; read-out: Inhibition at 10µM (%), CDK18/Y, average) was 97.8%.
